The target of one experiment is T1, recombinant human FAK1 (Homo sapiens, UniProt Q05397).
T1 construct: fused on or other part: N-terminal 6xHis tag
Put plainly: FAK1 HTRF assay. Type of experiment: biochemical. In outline:
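IC50 values derive from HTRF % inhibition (ratio 665/620 nm, Eu–anti-phosphotyrosine 0.1 nM, SA-APC 12 nM). The kinase step ran 45 min at room temperature, pairing 10 nM His-FAK1(692–end) from baculovirus with 0.5 μM gastrin Tyr87 biotin-peptide and a reagent at 10 μM final, pH 7.4. Compound dilutions began at 10 μM.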

Another experiment concerns the target T2, Recombinant Src enzyme (Homo sapiens, UniProt P12931).
T2 construct: purchased Millipore 14-326; host or cells: Sf21 insect cells
Nature of the experiment: Src HTRF assay. Format: biochemical. In short, it runs like this: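 Run as for the FAK HTRF assay (same buffer, supplements, compound preparation and procedure), with dasatinib included. Reaction contained 0.5 μM biotin-tagged Tyk2 synthetic peptide, 5 nM Src made in Sf21 cells, and a pH7.4-buffer-prepared component at 10 μM final.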
(In general: TR-FRET usually uses a lanthanide donor and a delayed reading to cut background.)

The next experiment addresses T3, AURKB (Aurora B) enzyme (Homo sapiens, UniProt Q96GD4).
T3 construct: purchased Invitrogen PVR 130
Nature of the experiment: Aurora B HTRF assay. Format: biochemical. The settings on record: read-out: AuroraB IC50. In outline:
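Enzyme (5 nM final) and ULight-labelled PLK Ser137 peptide (50 nM) reacted 1 h at room temperature; a 30 μM final component was also present. Detection used EDTA-containing buffer with europium anti-phospho-PLK(Ser137) antibody at 2 nM, 1 h, then time-resolved FRET readout.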

In the next experiment the target is JAK2 (Homo sapiens, UniProt O60674). Nature of the experiment: JAK2 biochemical potency. The following applies: read-out: JAK2 HTRF IC50.
JAK2, sequence (O60674 whole entry, species assumed): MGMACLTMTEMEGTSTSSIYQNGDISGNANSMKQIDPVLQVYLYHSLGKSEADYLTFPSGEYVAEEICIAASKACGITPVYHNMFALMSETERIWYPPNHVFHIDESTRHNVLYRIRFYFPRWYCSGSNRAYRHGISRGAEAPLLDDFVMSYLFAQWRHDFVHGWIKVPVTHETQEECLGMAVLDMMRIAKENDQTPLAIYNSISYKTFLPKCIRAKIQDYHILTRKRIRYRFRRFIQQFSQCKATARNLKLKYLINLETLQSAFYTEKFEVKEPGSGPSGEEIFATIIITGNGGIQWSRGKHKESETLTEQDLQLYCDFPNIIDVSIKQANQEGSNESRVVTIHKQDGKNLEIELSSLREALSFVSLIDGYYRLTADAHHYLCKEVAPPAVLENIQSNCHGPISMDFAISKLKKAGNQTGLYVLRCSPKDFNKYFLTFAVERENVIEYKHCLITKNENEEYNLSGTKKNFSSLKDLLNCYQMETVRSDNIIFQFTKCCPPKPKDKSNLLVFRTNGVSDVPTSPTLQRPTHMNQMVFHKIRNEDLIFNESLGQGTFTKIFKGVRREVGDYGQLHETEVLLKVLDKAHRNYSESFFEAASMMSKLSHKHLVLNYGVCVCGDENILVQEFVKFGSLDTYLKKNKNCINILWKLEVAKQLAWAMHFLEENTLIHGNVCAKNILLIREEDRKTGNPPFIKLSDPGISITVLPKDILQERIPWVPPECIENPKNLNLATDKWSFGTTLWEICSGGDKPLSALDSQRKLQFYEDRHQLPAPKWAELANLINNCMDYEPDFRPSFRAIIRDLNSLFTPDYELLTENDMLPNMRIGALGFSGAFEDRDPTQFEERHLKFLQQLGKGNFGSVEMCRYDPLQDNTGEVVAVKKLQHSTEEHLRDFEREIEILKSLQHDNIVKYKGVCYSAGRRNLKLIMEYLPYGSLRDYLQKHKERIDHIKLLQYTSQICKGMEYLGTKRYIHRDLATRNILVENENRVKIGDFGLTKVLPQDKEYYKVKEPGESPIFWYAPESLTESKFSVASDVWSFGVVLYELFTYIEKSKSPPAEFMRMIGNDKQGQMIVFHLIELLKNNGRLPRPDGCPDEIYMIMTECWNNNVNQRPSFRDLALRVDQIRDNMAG

T1 sequence (Q05397 422-680 limits assumed): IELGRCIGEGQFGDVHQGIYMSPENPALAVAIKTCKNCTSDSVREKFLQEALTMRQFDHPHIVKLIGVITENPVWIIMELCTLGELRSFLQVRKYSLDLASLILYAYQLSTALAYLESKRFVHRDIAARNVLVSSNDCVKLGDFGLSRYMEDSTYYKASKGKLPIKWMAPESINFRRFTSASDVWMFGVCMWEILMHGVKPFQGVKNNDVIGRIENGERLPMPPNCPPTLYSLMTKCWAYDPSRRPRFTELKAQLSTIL
T2 sequence (P12931 whole entry): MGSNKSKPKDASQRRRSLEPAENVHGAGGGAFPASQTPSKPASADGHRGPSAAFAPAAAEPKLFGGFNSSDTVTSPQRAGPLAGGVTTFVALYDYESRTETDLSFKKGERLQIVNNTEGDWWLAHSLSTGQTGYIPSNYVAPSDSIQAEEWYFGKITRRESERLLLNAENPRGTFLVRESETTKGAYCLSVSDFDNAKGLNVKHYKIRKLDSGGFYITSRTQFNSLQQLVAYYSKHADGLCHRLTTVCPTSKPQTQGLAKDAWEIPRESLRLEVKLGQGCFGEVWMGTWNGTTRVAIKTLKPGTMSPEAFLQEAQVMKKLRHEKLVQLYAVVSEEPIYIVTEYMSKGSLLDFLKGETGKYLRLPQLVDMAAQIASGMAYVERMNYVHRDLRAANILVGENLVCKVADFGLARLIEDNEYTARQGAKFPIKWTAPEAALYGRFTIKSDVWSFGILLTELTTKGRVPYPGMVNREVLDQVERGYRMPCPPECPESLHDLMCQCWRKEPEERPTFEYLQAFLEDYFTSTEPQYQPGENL
T3 sequence (Q96GD4 whole entry): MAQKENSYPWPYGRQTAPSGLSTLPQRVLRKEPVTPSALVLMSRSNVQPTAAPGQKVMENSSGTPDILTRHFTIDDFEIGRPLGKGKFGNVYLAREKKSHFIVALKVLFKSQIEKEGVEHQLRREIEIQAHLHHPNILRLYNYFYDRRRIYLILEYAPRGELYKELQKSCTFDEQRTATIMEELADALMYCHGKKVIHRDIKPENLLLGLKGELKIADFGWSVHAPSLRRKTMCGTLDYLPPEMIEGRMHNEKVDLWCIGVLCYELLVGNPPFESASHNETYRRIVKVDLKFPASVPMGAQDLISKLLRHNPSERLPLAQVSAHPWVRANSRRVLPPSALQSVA

Usually IC50 stands for the midpoint of a concentration-inhibition curve. Regarding `CN(c1ncccc1Cn1ccc2cnc(Nc3ccc4c(c3)CCC(=O)N4)nc21)S(C)(=O)=O` [Example 5], the IC50 on recombinant human FAK1, at Recombinant Src enzyme, on AURKB (Aurora B) enzyme and at JAK2 was less than 0.02 µM each time.

Regarding `CC(=O)Nc1ccc(Nc2cc3c(ccn3S(=O)(=O)c3cccc(OC(F)(F)F)c3)cn2)cc1` [Example 54], the IC50 at Recombinant Src enzyme and at JAK2 was greater than 1 µM throughout.

Consider `CC(=O)Nc1cccc(Nc2cc3c(ccn3S(=O)(=O)c3cccc(OC(F)(F)F)c3)cn2)c1` [Example 55], for which the IC50 at Recombinant Src enzyme, at AURKB (Aurora B) enzyme and at JAK2 was greater than 1 µM in each case.

With `CC(=O)Nc1cccc(Nc2cc3c(ccn3S(=O)(=O)c3ccccc3OC(F)(F)F)cn2)c1` [Example 58], the IC50 at Recombinant Src enzyme, on AURKB (Aurora B) enzyme and at JAK2 was greater than 1 µM each time.

As to `CC(=O)Nc1ccc(Nc2cc3c(cn2)cnn3Cc2cccnc2N(C)S(C)(=O)=O)cc1` [Example 66], the IC50 on Recombinant Src enzyme, on AURKB (Aurora B) enzyme and on JAK2 was greater than 1 µM throughout.

For the compound `CC(=O)Nc1cccc(Nc2cc3c(cn2)c(C)nn3Cc2ccccc2OC(F)F)c1` [Example 78], the IC50 on recombinant human FAK1, on Recombinant Src enzyme and at JAK2 was greater than 1 µM each time.

Turning to `Cc1nn(Cc2ccccc2OC(F)F)c2cc(Nc3ccc4c(c3)CCC(=O)N4)ncc12` [Example 80], the IC50 on Recombinant Src enzyme, at AURKB (Aurora B) enzyme and on JAK2 was greater than 1 µM in each case.

On to `CC(=O)Nc1ccc(Nc2cc3c(cn2)c(C)nn3Cc2ccccc2OC(F)F)cc1` [Example 81], for which the IC50 on recombinant human FAK1, at Recombinant Src enzyme and on JAK2 was greater than 1 µM in each case.

Turning to `COc1ccccc1S(=O)(=O)n1ccc2cnc(Nc3ccc4c(c3)CCC(=O)N4)nc21` [Example 106], the IC50 at recombinant human FAK1, at AURKB (Aurora B) enzyme and on JAK2 was less than 0.02 µM each time.

In the case of `O=S(=O)(c1ccccc1OC(F)(F)F)n1ccc2cnc(Nc3ccc(N4CCOCC4)cc3)cc21` [Example 113], the values for the IC50 at Recombinant Src enzyme, on AURKB (Aurora B) enzyme and at JAK2 were greater than 1 µM, less than 0.02 µM and greater than 1 µM, respectively.

Turning to `O=c1[nH]c2ccc(Nc3cc4c(ccn4S(=O)(=O)c4ccccc4OC(F)(F)F)cn3)cc2[nH]1` [Example 118], the IC50 at recombinant human FAK1 was less than 0.02 µM; on Recombinant Src enzyme, greater than 1 µM; at AURKB (Aurora B) enzyme it was less than 0.02 µM; on JAK2 it was greater than 1 µM.

Regarding `O=c1[nH]c2ccc(Nc3ncc4ccn(S(=O)(=O)c5ccccc5OC(F)F)c4n3)cc2[nH]1` [Example 180], the concentration for half-maximal inhibition (IC50) on recombinant human FAK1, at AURKB (Aurora B) enzyme and on JAK2 was less than 0.02 µM throughout.

Consider `O=S(=O)(c1ccccc1OC(F)F)n1ccc2cnc(Nc3ccc(N4CCNCC4)cc3)nc21` [Example 184], for which the IC50 on recombinant human FAK1, at AURKB (Aurora B) enzyme and at JAK2 was less than 0.02 µM in each case.

As to `O=S(=O)(c1cccc2cccnc12)n1ccc2cnc(Nc3ccc(N4CCNCC4)cc3)nc21` [Example 193], the 50% inhibitory concentration (IC50) on recombinant human FAK1, at AURKB (Aurora B) enzyme and on JAK2 was less than 0.02 µM in each case.

On to `O=S(=O)(c1cccc2cccnc12)n1ccc2cnc(Nc3ccc(N4CCNCC4)c(F)c3)nc21` [Example 194], for which the IC50 on recombinant human FAK1, on Recombinant Src enzyme, on AURKB (Aurora B) enzyme and at JAK2 was less than 0.02 µM in each case.

Turning to `Cc1cc(Nc2ncc3ccn(Cc4cccnc4N(C)S(C)(=O)=O)c3n2)ccc1N1CCNCC1` [Example 197], the IC50 on Recombinant Src enzyme, on AURKB (Aurora B) enzyme and at JAK2 was less than 0.02 µM each time.

With `CN(C)Cc1ccc(Nc2ncc3ccn(S(=O)(=O)c4cccc5cccnc45)c3n2)cc1` [Example 205], the half-maximal inhibitory concentration (IC50) on recombinant human FAK1, on AURKB (Aurora B) enzyme and on JAK2 was less than 0.02 µM in each case.

With `CN(c1ncccc1Cn1ccc2cnc(Nc3ccc(C4=CCNCC4)cc3)nc21)S(C)(=O)=O` [Example 206], the IC50 at Recombinant Src enzyme, on AURKB (Aurora B) enzyme and at JAK2 was less than 0.02 µM each time.

For `C[C@@H]1CN(c2ccc(Nc3ncc4ccn(S(=O)(=O)c5cccc6cccnc56)c4n3)cc2)CCN1` [Example 213], the IC50 on recombinant human FAK1, at Recombinant Src enzyme, on AURKB (Aurora B) enzyme and on JAK2 was less than 0.02 µM throughout.

For the compound `CN(c1ccccc1Cn1ccc2cnc(Nc3ccc(N4CCNCC4)cc3)nc21)S(C)(=O)=O` [Example 214], the IC50 at recombinant human FAK1, at Recombinant Src enzyme and on JAK2 was less than 0.02 µM throughout.

Regarding `N#Cc1ccccc1S(=O)(=O)n1ncc2cnc(Nc3ccc4c(c3)CCC(=O)N4)nc21` [Example 220], the IC50 on Recombinant Src enzyme, on AURKB (Aurora B) enzyme and on JAK2 was less than 0.02 µM each time.

Consider `O=S(=O)(c1cccc2cccnc12)n1ccc2cnc(Nc3ccc(CN4CCNCC4)cc3)nc21` [Example 244], for which the IC50 on recombinant human FAK1, on AURKB (Aurora B) enzyme and on JAK2 was less than 0.02 µM throughout.

For `O=S(=O)(c1cccc2cccnc12)n1ccc2cnc(Nc3ccc(N4CC5CC4CN5)cc3)nc21` (stereo not shown) [Example 246], the IC50 on recombinant human FAK1, at AURKB (Aurora B) enzyme and on JAK2 was less than 0.02 µM in each case.

`O=S(=O)(c1cccc2cccnc12)n1ccc2cnc(Nc3ccc(CN4CCC(F)(F)CC4)cc3)nc21` [Example 248]: the concentration for half-maximal inhibition (IC50) at recombinant human FAK1, at AURKB (Aurora B) enzyme and on JAK2 was less than 0.02 µM in each case.

For the compound `CN(c1ncccc1Cn1ccc2cnc(Nc3ccc4c(c3)CC(=O)N4)nc21)S(C)(=O)=O` [Example 304], the IC50 at recombinant human FAK1, on AURKB (Aurora B) enzyme and on JAK2 was less than 0.02 µM throughout.

With `N#Cc1ccccc1S(=O)(=O)n1ccc2cnc(Nc3ccc(N4CCNCC4)cc3)cc21` [Example 314], the IC50 on recombinant human FAK1, on AURKB (Aurora B) enzyme and at JAK2 was less than 0.02 µM in each case.

For the compound `N#Cc1ccccc1S(=O)(=O)n1cc(F)c2cnc(Nc3ccc(N4CCNCC4)cc3)nc21` [Example 319], the IC50 at recombinant human FAK1, on AURKB (Aurora B) enzyme and at JAK2 was less than 0.02 µM each time.

Regarding `COc1cc(Nc2cc3c(ccn3S(=O)(=O)c3cccc4cccnc34)cn2)ccc1N1CCNCC1` [Example 328], the IC50 was less than 0.02 µM on recombinant human FAK1, less than 0.02 µM on AURKB (Aurora B) enzyme and greater than 1 µM at JAK2.

Turning to `COc1ccccc1S(=O)(=O)n1ccc2cnc(Nc3ccc(N4CCNCC4)cc3)nc21` [Example 333], the IC50 at recombinant human FAK1, at AURKB (Aurora B) enzyme and on JAK2 was less than 0.02 µM throughout.

Consider `COc1cc(N2CCNCC2)ccc1Nc1ncc2ccn(S(=O)(=O)c3ccccc3C#N)c2n1` [Example 336], for which the concentration for half-maximal inhibition (IC50) on recombinant human FAK1 was less than 0.02 µM; at Recombinant Src enzyme, greater than 1 µM; at JAK2, greater than 1 µM.

In the case of `COc1cc(N2CCNCC2)ccc1Nc1ncc2ccn(Cc3cccnc3N(C)S(C)(=O)=O)c2n1` [Example 337], the IC50 is less than 0.02 µM on recombinant human FAK1, greater than 1 µM at Recombinant Src enzyme and greater than 1 µM at JAK2.

For `COc1cc(N2CCN(CCO)CC2)ccc1Nc1ncc2ccn(S(=O)(=O)c3cccc4cccnc34)c2n1` [Example 347], the IC50 was less than 0.02 µM on recombinant human FAK1, greater than 1 µM at Recombinant Src enzyme and greater than 1 µM on JAK2.

Turning to `COc1cc(N2CCNCC2)ccc1Nc1cc2c(ccn2S(=O)(=O)c2ccccc2C#N)cn1` [Example 348], the half-inhibitory concentration (IC50) was less than 0.02 µM on recombinant human FAK1, greater than 1 µM at Recombinant Src enzyme and greater than 1 µM on JAK2.

As to `Cc1cc(S(=O)(=O)n2ccc3cnc(Nc4ccc(N5CCNCC5)cc4)nc32)c2ncccc2c1` [Example 357], the IC50 at recombinant human FAK1, at AURKB (Aurora B) enzyme and at JAK2 was less than 0.02 µM each time.

For the compound `COc1cc(Nc2cc3c(ccn3S(=O)(=O)c3ccccc3C#N)cn2)ccc1N1CCNCC1` [Example 391], the figures for the IC50 on recombinant human FAK1, at AURKB (Aurora B) enzyme and at JAK2 were less than 0.02 µM, less than 0.02 µM and greater than 1 µM, respectively.

`C[C@@H]1CN(c2ccc(Nc3ncc4ccn(Cc5ccccc5N(C)S(C)(=O)=O)c4n3)cc2)CCN1` [Example 448, (R)—N-methyl-N-(2-((2-((4-(3-methylpiperazin-1-yl)phenyl)amino)-7H-pyrrolo[2,3-d]pyrimidin-7-yl)methyl)phenyl)methanesulfonamide]: the IC50 on recombinant human FAK1, on AURKB (Aurora B) enzyme and on JAK2 was less than 0.02 µM throughout.

Turning to `C[C@H]1CN(c2ccc(Nc3ncc4ccn(Cc5ccccc5N(C)S(C)(=O)=O)c4n3)cc2)CCN1` [Example 467], the IC50 on recombinant human FAK1, on AURKB (Aurora B) enzyme and at JAK2 was less than 0.02 µM throughout.

Turning to `CN(C)C1CCN(c2ccc(Nc3ncc4ccn(Cc5ccccc5N(C)S(C)(=O)=O)c4n3)cc2)CC1` [Example 468], the IC50 at recombinant human FAK1, at AURKB (Aurora B) enzyme and at JAK2 was less than 0.02 µM each time.

`C[C@@H]1CN(c2ccc(Nc3ncc4ccn(Cc5cccnc5N(C)S(C)(=O)=O)c4n3)cc2)CCN1` [Example 475]: the IC50 at AURKB (Aurora B) enzyme and on JAK2 was less than 0.02 µM throughout.

On to `C[C@H]1CNCCN1c1ccc(Nc2ncc3ccn(Cc4ccccc4N(C)S(C)(=O)=O)c3n2)cc1` [Example 481], for which the IC50 on AURKB (Aurora B) enzyme and at JAK2 was less than 0.02 µM each time.

The values are drawn from patent publication US20160222014A1, “COMPOUNDS FOR REGULATING FAK AND/OR SRC PATHWAYS” (ASANA BIOSCIENCES, LLC, priority 2013, published 2016).
